Source: patent publication US20100068150A1, “Selective Caspase Inhibitors” (The Board of Trustees of the Leland Stanford Junior …, priority 2006, published 2010)
Each block holds one molecule with its values, some of them ahead of it. Residues, ends and D or L forms follow the SMILES beside them. *: point of attachment. Cbz = O=C(OCc1ccccc1)*; CH2F = FC*

Experiments:
[1] = test system: extrinsic and intrinsic apoptotic pathways after spinal cord injury; conditions: animal models; cited from earlier work
[2] = biological target: T1, Caspase-7 (Homo sapiens, UniProt P55210); assay: Kinetic compound screening, progress curve method, caspase-7; assay type: biochemical
T1 sequence (P55210 1-303): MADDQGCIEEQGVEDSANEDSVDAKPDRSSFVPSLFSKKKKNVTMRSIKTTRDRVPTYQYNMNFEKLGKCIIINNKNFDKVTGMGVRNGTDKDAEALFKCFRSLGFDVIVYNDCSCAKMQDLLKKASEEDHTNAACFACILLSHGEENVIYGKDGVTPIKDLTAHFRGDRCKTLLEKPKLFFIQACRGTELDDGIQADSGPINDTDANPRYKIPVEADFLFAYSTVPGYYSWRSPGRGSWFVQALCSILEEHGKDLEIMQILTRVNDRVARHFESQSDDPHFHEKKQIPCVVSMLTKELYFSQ
Source text: (§1) Table III below presents Ki(app) values for select AB compounds. Ki(app) values (also called Kass or Kobs/I) represent the speed of inhibitor binding to a target enzyme. Units are [M^−1s^−1]. NI indicates no inhibition at concentrations tested. Parent compounds AB09, ABo8, and AB07 that include the optimal substrate specificity sequences for caspases-3, […] as determined by Thornberry and colleagues (Thornberry et al., 19970 are included between double lines.
(§2) The inhibitors AB07 (NP-LEHD-AOMK, caspase-9), AB08 (NP-LETD-AOMK, caspase-8), and AB09 (NP-DEVD-AOMK, caspase-3) were synthesized and kinetic inhibition constants (Kiapp) were obtained for all compounds for caspases 3, 7, 8 and 9 using the progress curve method for pseudo-first order reactions kinetics (Salvesen, 1989) (structures shown in Table I). […] Ki(app) values (also called Kass or Kobs/I) represent the speed of inhibitor binding to a target enzyme. Units are [M-1s-1]. NI indicates no inhibition at concentrations tested, ND indicates data not determined, SD indicates standard deviation.
(§3) Compound screening was completed using the progress curve method as described (Salvesen, 1989). All screening was carried out in caspase reaction buffer. The caspase-9 specific compounds AB38, 40, 41 and 42 were screened in caspase reaction buffer and in caspase buffer with 1M sodium citrate instead of sucrose as described (Pop, 2006) The concentrations of active caspases used is as follows: 5 nM active caspase-3, 5 nM active caspase-7, 10 nM active caspase-8, and 50 nM active caspase-9. To ensure full activation, caspases 3/7, 8 and 9 were preincubated at 37° C. for 5, 10, or 40 minutes respectively before kinetic measurements were made.

[3] = test system: Myocardial infarction and the resulting death of myocytes; conditions: animal models; cited from earlier work
[4] = biological target: Caspase-8 (Homo sapiens, UniProt Q14790); assay: Kinetic compound screening, progress curve method, caspase-8; assay type: biochemical
Chain of Caspase-8 (Q14790 217-479): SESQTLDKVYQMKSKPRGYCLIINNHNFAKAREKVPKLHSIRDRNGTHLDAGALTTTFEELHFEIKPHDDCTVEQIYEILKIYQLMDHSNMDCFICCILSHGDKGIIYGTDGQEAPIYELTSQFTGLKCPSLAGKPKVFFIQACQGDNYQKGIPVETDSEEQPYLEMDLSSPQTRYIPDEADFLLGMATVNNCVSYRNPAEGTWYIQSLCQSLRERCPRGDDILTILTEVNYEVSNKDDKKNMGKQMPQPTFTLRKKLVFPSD
Source text: as §1, §2, §3

[5] = biological target: T2, Caspase-3 (Homo sapiens, UniProt P42574); assay: Kinetic compound screening, progress curve method, caspase-3; assay type: biochemical
T2 sequence (P42574 29-175 limits assumed): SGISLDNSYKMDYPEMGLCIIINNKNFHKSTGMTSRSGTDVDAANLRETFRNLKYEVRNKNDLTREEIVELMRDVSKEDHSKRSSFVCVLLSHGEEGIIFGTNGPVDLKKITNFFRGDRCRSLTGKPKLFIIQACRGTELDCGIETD
T2 sequence (P42574 176-277 limits assumed): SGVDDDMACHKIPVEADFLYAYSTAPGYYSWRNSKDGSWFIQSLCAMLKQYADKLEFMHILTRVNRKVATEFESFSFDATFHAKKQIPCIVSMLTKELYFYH
Source text: as §1, §2, §3

[6] = test system: death receptor-mediated liver injury; conditions: animal models; cited from earlier work
[7] = test system: sepsis; conditions: mouse model; cited from earlier work
[8] = biological target: T3, Caspase-9 (Homo sapiens, UniProt P55211); assay: Kinetic compound screening, progress curve method, caspase-9; assay type: biochemical; conditions: NI = no inhibition at concentrations tested
T3 sequence (P55211 1-416): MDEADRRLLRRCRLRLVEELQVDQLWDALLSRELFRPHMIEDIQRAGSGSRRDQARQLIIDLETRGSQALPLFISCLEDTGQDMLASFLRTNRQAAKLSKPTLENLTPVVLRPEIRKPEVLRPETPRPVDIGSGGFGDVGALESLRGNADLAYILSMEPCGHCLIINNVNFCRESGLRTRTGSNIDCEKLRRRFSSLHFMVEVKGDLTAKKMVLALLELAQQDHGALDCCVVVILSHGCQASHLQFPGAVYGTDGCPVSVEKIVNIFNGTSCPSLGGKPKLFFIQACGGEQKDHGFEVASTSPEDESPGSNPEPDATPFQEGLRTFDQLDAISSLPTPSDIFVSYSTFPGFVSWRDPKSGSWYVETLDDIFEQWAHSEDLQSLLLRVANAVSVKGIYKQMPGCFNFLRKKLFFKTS
Source text: as §1, §2, §3

[9] = biological target: T4, mature p20 forms of caspase-7 (Homo sapiens, UniProt P55210); assay: Inhibitor specificity in hypotonic 293 extracts, mature p20 caspase-7; assay type: biochemical; conditions: inhibitor 20 μM for 5 min, then KMB01 30 min
T4 construct: p20 is mature large subunit of caspase-7 with N-terminal peptide removed; processing of the zymogen to the large and small subunits by activity of the initiator caspases; endogenous in cells
T4 sequence (P55210 24-198 limits assumed): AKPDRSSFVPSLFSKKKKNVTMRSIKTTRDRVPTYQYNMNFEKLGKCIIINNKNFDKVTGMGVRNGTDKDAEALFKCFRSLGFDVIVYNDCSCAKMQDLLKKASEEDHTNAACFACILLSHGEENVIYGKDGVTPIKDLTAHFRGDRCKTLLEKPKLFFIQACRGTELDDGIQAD
T4 sequence (P55210 207-303 limits assumed): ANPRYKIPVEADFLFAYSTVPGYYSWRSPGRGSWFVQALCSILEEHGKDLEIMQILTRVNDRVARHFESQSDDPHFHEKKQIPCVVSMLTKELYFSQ
Source text: (§4) FIGS. 6 A-E illustrate that full-length active caspase-7 has unique inhibitor specificity and is processed to mature forms by downstream executioner caspases. (A) The caspase-3 specific inhibitor causes accumulation of a catalytically active full-length form of caspase-7. Cytosolic extracts from 293 cells were activated with cytochrome c/dATP for the indicated times followed by labeling with KMB01 (left panel) and western blotting with a caspase-7 specific antibody (right panel) as in FIG. 5A. […] (B) The exact same experiment as (A) except extracts from MCF-7 cells were used in place of 293 extracts. (**) indicates forms of caspase-7 that are likely a result of the alternative transcription start site at methionine-45 (C) Quantification of the relative activity of FL-C7 in uninhibited 293 extracts (from FIG. 5A), AB06 treated 293 extracts (from (A)) and uninhibited MCF-7 extracts (from (B)) (D) Inhibitor specificity of full-length and processed forms of caspase-7. Extracts (293) were activated for 5 min with cytochrome c/dATP and then incubated with NP-capped AOMK inhibitors containing the indicated primary amino acid sequences for 5 minutes before KMB01 was added and allowed to label residual caspase active sites for 30 minutes. Samples were analyzed by SDS-PAGE followed by biotin blotting using strepavidin-HRP (left panel) or western blotting for caspase-7 (right panel). Identities of labeled caspases are indicated. (E) Specificity of AB06 after prolonged incubation times. Extracts were treated with AB06 at the indicated concentrations simultaneously with cytochrome c/dATP. At the indicated times after activation, samples were labeled with KMB01 (10 μM) for 30 minutes. Labeled caspases were resolved by SDS-PAGE analysis followed by biotin blotting using strepavidin-HRP.
An additional surprising finding from the inhibitor studies was the overall lack of inhibition of the FL-C7 species by AB06 relative to mature p20 forms of caspase-7. This was surprising since the sequence of AB06 (NP-D3VD-AOMK) differs from the KMB01 probe sequence (Bio-EVD-AOMK) only at the P3 residue. […] We therefore wanted to use inhibitors to compare the ability of different P3 elements to bind to full-length and p20 mature forms of caspase-7. […] Samples were analyzed for active site labeling and protein levels of both full-length and p20 forms of caspase-7 were monitored by western blot (FIG. 6D).
(§5) Hypotonic 293 extracts (73 μg of total protein) were activated at 37° C. for 5 minutes as described above. […] Samples (13.5 μg total protein) were analyzed by SDS-PAGE and biotin blotting as described above

[10] = biological target: T5, FL-C7 (full-length caspase-7) (Homo sapiens, UniProt P55210); assay: Inhibitor specificity in hypotonic 293 extracts, full-length caspase-7; assay type: biochemical; conditions: inhibitor 20 μM for 5 min, then KMB01 30 min
T5 construct: the p37 band as the full-length caspase-7 with intact N-terminus (FL-C7); endogenous in cells
T5 sequence (P55210 1-303): T1 sequence (P55210 1-303)
Source text: as §4
To further confirm our assignment of the labeled species we treated samples at various activation times with purified recombinant Bir3 domain of XIAP. […]
An additional surprising finding from the inhibitor studies was the overall lack of inhibition of the FL-C7 species by AB06 relative to mature p20 forms of caspase-7. […] Samples were analyzed for active site labeling and protein levels of both full-length and p20 forms of caspase-7 were monitored by western blot (FIG. 6D).
Hypotonic 293 extracts (73 μg of total protein) were activated as described above and allowed to incubate for the indicated times. […] Labeling was carried out for an additional 30 minutes and samples (13.5 μg total protein) were analyzed by SDS-PAGE and biotin blotting as described above.
as §5

[11] = test system: legumain and cathepsin B in RAW cell extracts; assay: Direct labeling of RAW cell extracts with Cy5 probes; assay type: binding; conditions: varying concentrations
Source text: Cy5 fluorescently labeled versions of the three best caspase probes were compared in direct labeling experiments using recombinant caspase-3 (FIG. 13, bottom panels) and RAW cell extracts (FIG. 13, top panels). […] All probes have similar reactivity towards recombinant caspase-3.

[12] = test system: cathepsin B and legumain; assay: In vivo labeling of cathepsin B and legumain in kidney and spleen of normal mice; conditions: intravenous, tissues collected 2 hrs after injection
Description: The present selective caspase inhibitors may be used for in vivo imaging. Cy5-fluorescent labeled versions of AB46 and AB50 were injected into normal mice and labeling of cathepsins and legumain in kidney and spleen was monitored (FIG. 14).
Normal mice were intravenously injected with the probes and tissues were collected 2 hrs after injection. Tissues were homogenized and total protein samples were analyzed by SDS-PAGE followed by scanning of the gel using a fluorescent scanner.

Molecule: COC(=O)C[C@H](NC(=O)[C@H](C)NC(=O)[C@@H](NC(=O)OCc1ccccc1)C(C)C)C(=O)CF [ZVAD-fmk, benzyloxycarbonyl-Val-Ala-Asp-fluoromethylketone, reference compound] (Cbz-Val-Ala-Asp(OMe)-CH2F)
- effect after spinal cord injury [1]: reduced lesion size and improved motor function
- Ki(app) Caspase-7 ([2]; Table III, Ki(app) = Kass or Kobs/I, 5 nM active caspase-7): <5,000 M^−1s^−1
- Caspase-7 Ki (app) ([2]; Table IV): <5,000 M-1s-1
- effect on myocardial infarction and death of myocytes [3]: ameliorated
- Ki(app) Caspase-8 ([4]; Table III, Ki(app) = Kass or Kobs/I, 10 nM active caspase-8): 203286 M⁻¹ s⁻¹
- Caspase-8 Ki (app) ([4]; Table IV, NI = no inhibition at concentrations tested): 203,286 M-1s-1
- Ki(app) Caspase-3 ([5]; Table III, Ki(app) = Kass or Kobs/I, 5 nM active caspase-3): 25922 M⁻¹ s⁻¹
- Caspase-3 Ki(app) ([5]; Table IV): 25,922 M-1s-1
- protection against liver injury [6]: protective and efficiently blocked death receptor-mediated liver injury
- effect on sepsis [7]: efficiently reduced
- Ki(app) Caspase-9 ([8]; Table III, Ki(app) = Kass or Kobs/I, 50 nM active caspase-9): <5,000 M^−1s^−1
- Caspase-9 Ki (app) ([8]; Table IV): <5,000 M-1s-1

- block of KMB01 labeling of mature p20 caspase-7 [9]: efficiently blocked labeling
- inhibition of FL-C7 labeling [10]: almost totally inhibited
Molecule: Cc1cccc(C)c1C(=O)OCC(=O)[C@H](CC(=O)O)NC(=O)[C@@H](NC(=O)[C@H](CCC(=O)O)NC(=O)Cc1ccc(O)c([N+](=O)[O-])c1)C(C)C [AB45, Np-E-V- D-AOMK]

- block of KMB01 labeling of mature p20 caspase-7 [9]: incomplete inhibition
- inhibition of FL-C7 labeling [10]: relatively insensitive to inhibition
Molecule: Cc1cccc(C)c1C(=O)OCC(=O)[C@H](CC(=O)O)NC(=O)[C@@H](NC(=O)[C@H](Cc1ccncc1)NC(=O)Cc1ccccc1)C(C)C [AB37, Cbz-3-V-D-AOMK]

Molecule: Cy5-hex-EPD-AOMK [AB50-Cy5]
- direct labeling of off targets in RAW cell extracts [11]: only labels legumain

Molecule: CC[C@H](NC(=O)[C@@H](CCC(=O)O)NC(=O)Cc1ccc(O)c([N+](=O)[O-])c1)C(=O)N[C@@H](CC(=O)O)C(=O)COC(=O)c1c(C)cccc1C [AB46, Np-E-8-D-AOMK]
- in vivo labeling in kidney and spleen [12]: significant labeling of both legumain and cathepsin B
